Source: PubChem BioAssay (NCI)
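All cell lines were grown in 96-well plates and treated with compound for 48 hours. Here, GI50 denotes the concentration required for 50% inhibition of growth. TGI: concentration producing complete growth inhibition.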

Assays:
Test in all cases: growth of human tumour cells (NCI), 48 h
HCT-15 colon = test system: HCT-15 colon
PC-3 prostate = test system: PC-3 prostate
HOP-62 NSCLC = test system: HOP-62 NSCLC
SK-OV-3 ovarian = test system: SK-OV-3 ovarian
A549 NSCLC = test system: A549 NSCLC
MALME-3M melanoma = test system: MALME-3M melanoma
HCC-2998 colon = test system: HCC-2998 colon
DU-145 prostate = test system: DU-145 prostate
IGROV1 ovarian = test system: IGROV1 ovarian
SK-MEL-5 melanoma = test system: SK-MEL-5 melanoma
HS 578T breast = test system: HS 578T breast
RXF 393 renal = test system: RXF 393 renal
BT-549 breast = test system: BT-549 breast
EKVX NSCLC = test system: EKVX NSCLC
U251 CNS = test system: U251 CNS
UACC-62 melanoma = test system: UACC-62 melanoma
SNB-75 CNS = test system: SNB-75 CNS
RPMI-8226 leukemia = test system: RPMI-8226 leukemia
NCI-H460 lung = test system: NCI-H460 lung
NCI-H23 lung = test system: NCI-H23 lung
CAKI-1 renal = test system: CAKI-1 renal
LOX IMVI melanoma = test system: LOX IMVI melanoma
SF-539 CNS = test system: SF-539 CNS
MOLT-4 leukemia = test system: MOLT-4 leukemia
HCT-116 colon = test system: HCT-116 colon
UO-31 renal = test system: UO-31 renal
M14 melanoma = test system: M14 melanoma
T-47D breast = test system: T-47D breast
TK-10 renal = test system: TK-10 renal

Molecule NC(=O)[C@@H](CCC(F)(F)F)N(Cc1ccc(-c2ncon2)cc1F)S(=O)(=O)c1ccc(Cl)cc1 has a TGI (HCT-15 colon) greater than 100 µM, a GI50 (PC-3 prostate) of 12.6 µM and a TGI (PC-3 prostate) greater than 100 µM. The GI50 (HOP-62 NSCLC) was greater than 43.2 µM, the TGI (HOP-62 NSCLC) was greater than 64.5 µM and the GI50 (SK-OV-3 ovarian) was greater than 50.7 µM. The TGI (SK-OV-3 ovarian) was greater than 89.9 µM, the GI50 (A549 NSCLC) was 36.7 µM and the TGI (A549 NSCLC) was greater than 100 µM. It also gave a GI50 (MALME-3M melanoma) of 32 µM, a TGI (MALME-3M melanoma) greater than 73.7 µM and a GI50 (HCC-2998 colon) greater than 68.9 µM. It also gave a TGI (HCC-2998 colon) greater than 100 µM, a GI50 (DU-145 prostate) greater than 67.1 µM and a TGI (DU-145 prostate) greater than 100 µM. The GI50 (IGROV1 ovarian) was 51.7 µM, the TGI (IGROV1 ovarian) was greater than 100 µM and the GI50 (SK-MEL-5 melanoma) was 15.8 µM. It also gave a TGI (SK-MEL-5 melanoma) of 33.2 µM, a GI50 (HS 578T breast) of 28.8 µM and a TGI (HS 578T breast) greater than 100 µM. It also gave a GI50 (RXF 393 renal) of 20.8 µM, a TGI (RXF 393 renal) greater than 100 µM and a GI50 (BT-549 breast) of 32.6 µM. For the same molecule, the TGI (BT-549 breast) was greater than 59 µM, the GI50 (EKVX NSCLC) was greater than 90.3 µM and the TGI (EKVX NSCLC) was greater than 100 µM. The GI50 (U251 CNS) was greater than 49 µM, the TGI (U251 CNS) was greater than 100 µM and the GI50 (UACC-62 melanoma) was 18.2 µM. It also gave a TGI (UACC-62 melanoma) greater than 50.7 µM, a GI50 (SNB-75 CNS) of 53.3 µM and a TGI (SNB-75 CNS) greater than 100 µM. The GI50 (RPMI-8226 leukemia) was 14.5 µM, the TGI (RPMI-8226 leukemia) was 64.4 µM and the GI50 (NCI-H460 lung) was 30.6 µM. It also gave a TGI (NCI-H460 lung) greater than 100 µM, a GI50 (NCI-H23 lung) of 36.1 µM and a TGI (NCI-H23 lung) greater than 100 µM. It also gave a GI50 (CAKI-1 renal) of 13.7 µM, a TGI (CAKI-1 renal) greater than 62.8 µM and a GI50 (LOX IMVI melanoma) of 29.9 µM. For the same molecule, the TGI (LOX IMVI melanoma) was greater than 100 µM, the GI50 (SF-539 CNS) was 31 µM and the TGI (SF-539 CNS) was greater than 62.6 µM. The GI50 (MOLT-4 leukemia) was 16.3 µM, the TGI (MOLT-4 leukemia) was 54.7 µM and the GI50 (HCT-116 colon) was 35.3 µM. The TGI (HCT-116 colon) was greater than 61.7 µM, the GI50 (UO-31 renal) was 13.1 µM and the TGI (UO-31 renal) was greater than 100 µM. The GI50 (M14 melanoma) was 22.2 µM, the TGI (M14 melanoma) was greater than 52.6 µM and the GI50 (T-47D breast) was 21.3 µM. It also gave a TGI (T-47D breast) greater than 78.7 µM, a GI50 (TK-10 renal) of 21 µM and a TGI (TK-10 renal) greater than 63.5 µM.
